Measured values from patent US7150974B1, “Parathyroid hormone receptor binding method” (The General Hospital Corporation, priority 1991, dated 2006).

Legend:
[1] = target: T1, human kidney PTH/PTHrP receptor (Homo sapiens, UniProt Q03431, L389Q); assay: Radioreceptor assay, COS-7 cells transiently expressing human kidney PTH/PTHrP receptor (HKrk); assay type: binding
T1 construct: The full-length human kidney PTH/PTHrP receptor cDNA, HKrk, was constructed using the BamHI/PvuII fragment of PCR clone #2 and HK-2; expressed in transfected cells; host or cells: COS-7 cells, transient (DEAE/Dextran), pcDNAI
T1 sequence (Q03431 27-593 L389Q): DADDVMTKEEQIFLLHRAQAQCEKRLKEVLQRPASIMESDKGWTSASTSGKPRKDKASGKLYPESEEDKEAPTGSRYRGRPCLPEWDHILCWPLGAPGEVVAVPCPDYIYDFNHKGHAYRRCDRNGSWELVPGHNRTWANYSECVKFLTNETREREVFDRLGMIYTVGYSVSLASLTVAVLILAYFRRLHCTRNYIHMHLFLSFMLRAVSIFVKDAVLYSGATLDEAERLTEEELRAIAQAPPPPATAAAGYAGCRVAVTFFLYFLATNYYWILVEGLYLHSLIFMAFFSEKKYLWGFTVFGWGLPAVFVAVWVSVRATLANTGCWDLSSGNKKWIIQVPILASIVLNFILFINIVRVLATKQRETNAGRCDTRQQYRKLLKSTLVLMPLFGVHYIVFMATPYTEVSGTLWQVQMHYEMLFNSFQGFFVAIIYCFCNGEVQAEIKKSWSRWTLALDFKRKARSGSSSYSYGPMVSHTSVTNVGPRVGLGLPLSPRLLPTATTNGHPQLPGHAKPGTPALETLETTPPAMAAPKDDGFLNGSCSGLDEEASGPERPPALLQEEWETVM
Method: In brief, the labeled peptide was dissolved in 0.1% trifluoracetic acid (TFA), applied to a C18 Sep-pak cartridge (Waters Associates, Inc., Milford, Mass.) and eluted with a solution of 60% acetonitrile in 0.1% TFA. After lyophilization, the radioligand then was applied to C18-μBondapak column (3.9 mm×30 cm. Waters Associates) and eluted over 30 min with a linear gradient of 30-50% acetonitrile-0.1% TFA at a flow rate of 2 ml/min.
COS-7 cells were grown in 15 cm plates in DMEM, 10% heat-inactivated […], 10 mg/L gentamycin until 80-90% confluent. Twenty-four hours after transfection by the DEAE/Dextran method (Sambrook et al., supra), with 1-2 μg of plasmid DNA, the cells were trypsinized and replated in multiwell plastic dishes (16 or 35 mm diameter, Costar, Cambridge, Mass.) at a cell concentration of 5×10^4 cells/cm^2). […] After continuing culture for another 48 h, radiorecepter assays were performed. The culture medium was replaced with buffer containing 50 mM Tris-HCL (pH 7.7), 100 mM NaCl, 2 mM CaCl2, 5 mM KCL, 0.5% heat-inactivated fetal bovine serum (GIBCO), and 5% heat-inactivated horse serum (KC Biological Inc., Lenexa, Kans.) immediately before studies were initiated.
Incubations were terminated by aspirating the buffer, and repeatedly (×3) washing the culture dishes, containing the adherent cells with chilled 0.9% NaCl solution, over a 15 sec period. Cell-bound radioactivity was recovered by the sequential addition (×3) of 1 N NaOH (200 μl) to each well. After 30 min at room temperature, the NaOH was transferred to a glass tube. A second and third extraction with 1 N NaOH (200 μl) were combined with the first, and the total radioactivity was counted in a γ-spectrometer (Packard Instruments, Downers Grove, Ill.).

[2] = target: T1, human kidney PTH/PTHrP receptor; assay: Intracellular free calcium, COS-7 cells expressing human receptor; assay type: cell-based
Method: Details of the methodology are:
Coverslips plated with COS cells were incubated in Fura-2 AM loading buffer containing, in mM: HEPES (N-[2-Hydroxyethyl]piperazine-N′-[2-ethanesulfonic acid]), 20; CaCl2, 1; KCl 5; NaCl, 145; MgSO4, 0.5; NaHCO3, 25; K2HPO4, 1.4; glucose, 10; and Fura-2 AM 91-(2-5′-carboxyoxazol-2′-yl)-6-aminobenzofuran-5oxy-(2′-amino-5′-methylphenoxy)ethane-N,N,N′,N′-tetraaecetic acid acetomethoxy ester), 0.5; at 37° C. at pH7.4, aerated with 95% air and 5% CO2 for 45 minutes. Cells loaded with Fura-2 AM were then washed with a modified Krebs-Heinseleit (KH) buffer containing, in mM: HEPES, 20; CaCl2, 1; KCl, 5; NaCl, 145; MgSO4, 0.5; Na2HPO4, 1; glucose, 5; pH7.4. To check that cleavage of the ester occurred, the excitation spectra after different times of Fura-2 AM incubation were measured.
To measure fluorescence of individual cells, the cover slips were placed in a microscope tissue chamber (Biophysica Technologies, Inc., MD). The chamber consisted of a shallow, sloped compartment made of Teflon with a silicone rubber seal. The cover slips served as the bottom of the chamber. A heater/cooler ring was encased in the silicone rubber which sealed the coverslip in place.

Substance: [Nle^8,18, Tyr^34]bPTH(1-34)amide
- fold higher apparent Kd, human versus rat bone PTH/PTHrP receptor ([1]; human versus rat receptor): 2 fold
- specific binding of radiolabelled ligand ([1]; radiolabelled ligand ~200,000 cpm, COS-7 cells transfected with cloned human PTH/PTHrP receptor): 10.1±3.7%
- increase in intracellular free calcium, PTH(1-34) compared with PTHrP(1-36) [2]: to the same extent
